{"source": "patent US20070169214A1", "about": "“Thiol methyltransferase-based selection” (priority 2004, published 2007)", "key": {"[1]": {"test_system": "HEK 293 cells", "test": "Growth of transfected HEK 293 cells monitored by GFP fluorescence", "format": "cell-based", "conditions": "0-200 mM toxin, 24 h", "experimental": "A TMT insert was generated by linearizing pBluescript vector harboring the full-length clone (described in Example 2) with SpeI and ApaI and inserted into the pTracer™-SV40 mammalian expression plasmid. This vector contains a cycle-3-GFP, an improved Green Fluorescent Protein gene fused to Zeocin™ resistance gene for selection in mammalian cells. Transfection of HEK 293 cells was carried out in 24 well plates using Fugene 6™ Transfection reagent (Roche Molecular Biochemicals). A ratio of DNA to Fugene of 1:6 and 200 or 400 ng of DNA were used. Each well was seeded with 2×10^5 cells grown in a monolayer for 16 h in […] DMEM containing 10% serum. Transfection was performed on 90% confluent cells. Prior to transfection, the medium containing serum was removed and replaced with 150 μl of serum-free medium in each well. A DNA/Fugene 6 mixture was incubated for 15 min at room temperature and 100 μl of this mixture was added drop-wise to each well while cells were gently rocked. After a 3 hour incubation, another 250 μl DMEM containing 2× serum was added to each well and cells were further incubated for 48 h. […] These cells were allowed to grow for another 24 h. Growth was monitored by fluorescent microscopy to detect the presence of GFP. […] The emission of CH3I was then monitored by gas chromatography."}, "[2]": {"test_system": "tobacco plants", "test": "In vivo TMT activity of tobacco plants grown on SCN", "conditions": "transgenic tobacco plant", "experimental": "(§1) In vivo assay: This assay was used in the studies described herein. In vivo TMT activity is measured in 10 leaf disks placed on a Whatman filter paper (4.25 cm) in a 50-ml Erlenmeyer flask, and incubated with 2 ml of a 100 mM KI solution (Saini et al., [1995] Plant, Cell and Environment, 18:1027-1033). The flask is sealed with a rubber stopper and CH3I formed in the headspace is quantified after 2 h by gas chromatography. Assays for alternative substrates or inhibitors of the enzyme contained 20 mol m^−3 KI (the known substrate) and a range of concentrations of the compound to be tested. In the assay for HS^− methylation, KI in the above assay is replaced with 20 mM (NH4)2S.\nWith reference to FIG. 34, the effect of SCN on in vivo TMT activity of transgenic/non-transgenic tobacco plants was analysed. […] As the concentration of SCN increased to 5 mM, the transgenic plant was able to methylate the SCN but beyond 5 mM, the activity decreased as higher SCN levels appear to confer some toxicity to the plant."}, "[3]": {"test_system": "A. thaliana plants", "test": "In vivo TMT activity in 3 Arabidopsis phenotypes grown on SCN", "experimental": "as §1\nWith reference to FIG. 36, the effect of SCN on TMT activity in 3 Arabidopsis phenotypes was analysed. […] As the concentration of SCN increased the TT and Tt plants were less and less able to methylate the SCN. TT plants could methylate the SCN up to 10 mM while the Tt had no activity after 2.5 mM, as it appears that higher levels of SCN may have some toxicity to the heterozygote plant."}, "[4]": {"test_system": "potato roots", "test": "Potato root growth on MS with toxin (WinRhizo root length)", "design": "species or system Solanum tuberosum cv Russet Burbank", "conditions": "increasing toxin concentration, 10 days, transgenic and non-transgenic roots", "source_text": "pBluescript plasmid harboring the full-length TMT1clone (SEQ ID NO:1) was linearized with BamHI and KpnI and cloned in a sense orientation into the binary pBin19 double enhancer vector between the 35S promoter of CaMV and the Nos terminator. Agrobacterium rhizogenes wild-type strain A4 was then transformed either with the pBin/TMT vector or pBin vector alone. Freshly cut Solanum tuberosum cv Russet Burbank petioles were decontaminated by soaking in diluted commercial bleach (10%) containing 0.01% Tween-20™ for 10 min, followed by three 10 min washes in sterile water. The petioles were then cut into 4 cm segments and cultured apical side down in MS medium containing 0.4% phytagel™. The upper parts of the petioles were infected with freshly streaked A. rhizogenes A4 carrying the pBin19 vector alone (non-transgenic roots) or with the pBin vector with the TMT insert (transgenic roots). Roots started appearing after about 10 days. […]\nEvery 2 weeks, the carbenicillin concentration was halved until no carbenicillin was present in the medium. All roots were then screened for TMT activity using an in vivo technique where KI in solution (100 mM) was added to the roots and emission of CH3I was detected using gas chromatography. […] The roots were placed in MS containing 0.2% phytagel and allowed to grow for 10 days after which the growth was measured using WinRhizo™ software."}, "[5]": {"test_system": "E. coli M15 cells", "test": "Bacterial growth (OD600) in the presence of toxin", "format": "cell-based, Escherichia coli", "conditions": "for growth of non-transgenic bacteria: E. coli M15 with empty vector pQE30, 4 h at 37° C.; for ΔOD600 (growth of transgenic bacteria): E. coli M15 with pQETMT1, 4 h at 37° C.", "experimental": "E. coli M15 cells transformed with the empty vector pQE30 (referred to as non-transgenic bacteria) or pQETMT1 (hereafter referred to as transgenic bacteria) were grown as 15 ml starter cultures in LB medium supplemented with 100 μg/ml ampicillin and […] kanamycin at 37° C. for 16 h. 5 ml of each culture was then transferred to 100 ml of fresh LB medium containing the same concentrations of both antibiotics and cultures grown to an OD600 of 0.6. […] In the culture tubes, expression of the recombinant TMT protein was induced by adding […] (IPTG) to a final concentration of 1 mM. All the culture tubes were incubated at 37° C. for another 4 h. Bacterial growth at different toxin concentrations was measured by optical density (OD600) and the difference in OD600 (ΔOD600) was calculated."}}}
{"smiles": "N#C[S-].[Na+]", "note": "[NaSCN]", "values": [{"measurement": "GFP fluorescence (cell viability), transgenic vs non-transgenic cells", "setting": "[1]", "value": "more fluorescence in the transgenic than in the non-transgenic cells"}, {"measurement": "SCN concentration beyond which in vivo TMT activity decreased", "setting": "[2]", "value": "> 5", "unit": "mM"}, {"measurement": "SCN concentration up to which plants could methylate SCN (TMT activity)", "setting": "[3]; TT (wild type) plants", "value": "up to 10 mM"}, {"measurement": "SCN concentration after which there was no TMT activity", "setting": "[3]; Tt (heterozygous) plants", "value": "> 2.5", "unit": "mM"}, {"measurement": "root growth (root length)", "setting": "[4]", "value": "growth of both transgenic and non-transgenic roots was affected"}, {"measurement": "growth of non-transgenic bacteria", "setting": "[5]; 200 mM NaSCN", "value": "halted non-transgenic bacterial growth"}, {"measurement": "ΔOD600 (growth of transgenic bacteria)", "setting": "[5]; 200 mM NaSCN", "value": 0.377}]}
{"smiles": "I", "note": "[KI]", "values": [{"measurement": "GFP fluorescence (cell viability), transgenic vs non-transgenic cells", "setting": "[1]", "value": "more fluorescence in the transgenic than in the non-transgenic cells"}, {"measurement": "growth of non-transgenic bacteria", "setting": "[5]; 250 mM KI", "value": "growth of the non-transgenic bacteria was halted"}, {"measurement": "ΔOD600 (growth of transgenic bacteria)", "setting": "[5]; 250 mM KI", "value": 0.547}]}
